Source: patent US8809583B2, “Methods for producing isomers of muconic acid and muconate salts” (Amyris, Inc., priority 2010, dated 2014)

What was measured:
Assay type in all cases: physicochemical
[1] = Isomerization of cis,cis-muconate to cis,trans-muconate in crude fermentation broth, monitored by 1H NMR and HPLC; conditions: for time until isomerization cis,cis to cis,trans is essentially complete: pH 4, 60° C.
Protocol: cis,cis-muconate produced from a renewable carbon source through biocatalytic conversion (e.g., according to the method of Examples 7 and 7A) was provided, and the fermentation culture including the cis,cis-muconate was warmed to 60° C. The warmed fermentation culture was adjusted to pH 4 by adding 2 N sulfuric acid over 0.5 h. The acidified culture was allowed to react for 3.5 h.
The reaction was monitored by ^1H NMR and HPLC equipped with the Prevail Organic Acid Column (150 mm×4.6 mm), to determine the endpoint of the reaction. […] In general, such isomerization reactions can be monitored to determine appropriate reaction parameters (e.g., time, temperature, pH, and the like).

[2] = Solvent extraction of cis,trans-muconic acid from acidified, filtered fermentation broth (HPLC of both phases); conditions: pH about 3
Protocol: Fermentation broth was obtained that had been isomerized to cis,trans-muconic acid, and was acidified to a pH of about 3. The solid cis,trans-muconic acid was removed by filtration to leave acidified fermentation broth containing approximately 5 to 10 grams per Liter of cis,trans-muconic acid.
(§1) To individual 50 mL conical centrifuge tubes each containing 15 mL of the filtered broth were added 15 mL of each solvent listed in tables below. Each tube was agitated for two minutes and the organic and aqueous phases allowed to separate. The aqueous layer was separated from the solvent layer by pipette and placed into a new 50 mL conical tube. Both the aqueous and solvent phases of each extraction were analyzed for muconic acid using HPLC. A second extraction was performed on each of the separated aqueous layers using fresh solvent. Again the samples were agitated, allowed to settle and the aqueous and organic phases were separated and analyzed.
Different broth samples with different amounts of cis,trans-muconic acid were used to generate the results in each table.

[3] = Solvent extraction of slurry of cis,trans-muconic acid in M9 salts (simulated broth) acidified to pH 3.0, precipitate left in; conditions: 63.34 g/L incl. precipitate
Protocol: as §1
To test the ability of solvent extraction to recover cis,trans-muconic acid after acidification to sufficiently low levels that significant amounts of the cis,trans-muconic acid has precipitated, a solution of cis,trans-muconic acid in a solution of M9 salts was used to simulate a fermentation broth. 15 grams of cis,trans-muconic acid were added to 250 mL of M9 salts giving an approximate titer of 60 g/L. This was achieved by raising the pH to 7.0 using sodium hydroxide. The broth was then acidified with sulfuric acid to pH 3.0 causing the cis,trans-muconic acid to precipitate. The solid precipitate was left in the acidified mixture, and the entire slurry was extracted twice with solvent as described above.

[4] = Solubility of muconic acid isomers in organic solvents
[5] = Precipitation of cis,trans-muconate from clarified broth at different pH values
From the text: Following isomerization (e.g., as in Example 8), broth containing cis,trans-muconic acid was cooled to approximately ambient temperature and the cells, cell debris and precipitated solids were removed from the culture broth by centrifugation. Alternatively, such solids can be removed by filtration (e.g., through a 100 kD SARTOCON® Slice cassette). The cell-free broth was then clarified by filtration (e.g., through a 10 kD SARTOCON® Slice cassette), to remove proteins. […]

[6] = broth 4.86 g/L, cyclohexanone, first line (extraction number not given)
[7] = broth 4.86 g/L, cyclohexanone, second line (extraction number not given)
[8] = broth 4.86 g/L, ethyl hexanol, first line (extraction number not given)
[9] = broth 4.86 g/L, ethyl hexanol, second line (extraction number not given)
[10] = broth 4.86 g/L, isoalcohol, first line (extraction number not given)
[11] = broth 4.86 g/L, isoalcohol, second line (extraction number not given)
[12] = broth 4.86 g/L, xylene, first line (extraction number not given)
[13] = broth 4.86 g/L, xylene, second line (extraction number not given)
[14] = broth 9.82 g/L, 1-butanol, extraction 1
[15] = broth 9.82 g/L, 1-butanol, extraction 2
[16] = broth 9.82 g/L, Octanol, extraction 1
[17] = broth 9.82 g/L, Octanol, extraction 2
[18] = broth 9.82 g/L, tBME, extraction 1
[19] = broth 9.82 g/L, tBME, extraction 2
[20] = broth 10.69 g/L, 1-pentanol, extraction 1
[21] = broth 10.69 g/L, 1-pentanol, extraction 2
[22] = broth 10.69 g/L, MEK, extraction 1
[23] = broth 10.69 g/L, MEK, extraction 2
[24] = broth 10.69 g/L, MeTHF, extraction 1
[25] = broth 10.69 g/L, MeTHF, extraction 2
[26] = broth 10.69 g/L, cyclohexane, extraction 1
[27] = broth 10.69 g/L, cyclohexane, extraction 2
[28] = broth 10.69 g/L, cylcohexanol, extraction 1
[29] = broth 10.69 g/L, cylcohexanol, extraction 2
[30] = broth 10.69 g/L, decalin, extraction 1
[31] = broth 10.69 g/L, decalin, extraction 2
[32] = broth 10.69 g/L, n-butyl acetate, extraction 1
[33] = broth 10.69 g/L, n-butyl acetate, extraction 2

In the case of `O=C(O)/C=C\C=C/C(=O)O` [cis,cis-muconate, cis,cis-muconic acid], the “time until isomerization cis,cis to cis,trans is essentially complete” value ([1]; HPLC traces and time course) is reported as “about 1.25 hours”, the “time until isomerization cis,cis to cis,trans is essentially complete” value ([1]; crude fermentation broth, 1H NMR) is reported as “about 1.25 hours” and the “isomerization from cis,cis to cis,trans-muconic acid” value ([1]; pH 7, HPLC traces and time course) is reported as “essentially no isomerization”. For the same molecule, the “isomerization from cis,cis to cis,trans muconic acid” value ([1]; pH 7, crude fermentation broth, 0 to 3.25 hours, 1H NMR) was “essentially no isomerization”.
In the case of `O=C(O)/C=C\C=C\C(=O)O` [cis,trans-muconic acid], the “Muconic acid in aqueous phase” value [2, 6] is reported as 0.21 g/L, the “Muconic acid in organic phase” value [2, 6] is reported as 6.11 g/L and the Partition coefficient [2, 6] is reported as 29.10. The “Muconic acid in aqueous phase” value [2, 7] was 0.23 g/L, the “Muconic acid in organic phase” value [2, 7] was 0.00 g/L and the Partition coefficient [2, 7] was “large”. For the same molecule, the “Muconic acid in aqueous phase” value [2, 8] was 0.89 g/L, the “Muconic acid in organic phase” value [2, 8] was 3.83 g/L and the Partition coefficient [2, 8] was 4.30. The “Muconic acid in aqueous phase” value [2, 9] was 0.20 g/L, the “Muconic acid in organic phase” value [2, 9] was 0.79 g/L and the Partition coefficient [2, 9] was 3.95. The “Muconic acid in aqueous phase” value [2, 10] was 0.63 g/L, the “Muconic acid in organic phase” value [2, 10] was 4.87 g/L and the Partition coefficient [2, 10] was 7.73. For the same molecule, the “Muconic acid in aqueous phase” value [2, 11] was 0.04 g/L, the “Muconic acid in organic phase” value [2, 11] was 0.49 g/L and the Partition coefficient [2, 11] was 12.25. The “Muconic acid in aqueous phase” value [2, 12] was 5.15 g/L, the “Muconic acid in organic phase” value [2, 12] was 0.00 g/L and the Partition coefficient [2, 12] was 0.00. The “Muconic acid in aqueous phase” value [2, 13] was 4.82 g/L, the “Muconic acid in organic phase” value [2, 13] was 0.00 g/L and the Partition coefficient [2, 13] was 0.00. For the same molecule, the “Muconic acid in aqueous phase” value [2, 14] was 1.10 g/L, the “Muconic acid in organic phase” value [2, 14] was 6.26 g/L and the Partition coefficient [2, 14] was 5.69. The “Muconic acid in aqueous phase” value [2, 15] was 0.27 g/L, the “Muconic acid in organic phase” value [2, 15] was 0.51 g/L and the Partition coefficient [2, 15] was 1.89. For the same molecule, the “Muconic acid in aqueous phase” value [2, 16] was 2.19 g/L, the “Muconic acid in organic phase” value [2, 16] was 5.40 g/L and the Partition coefficient [2, 16] was 2.47. For the same molecule, the “Muconic acid in aqueous phase” value [2, 17] was 1.52 g/L, the “Muconic acid in organic phase” value [2, 17] was 0.53 g/L and the Partition coefficient [2, 17] was 0.35. For the same molecule, the “Muconic acid in aqueous phase” value [2, 18] was 2.05 g/L, the “Muconic acid in organic phase” value [2, 18] was 6.53 g/L and the Partition coefficient [2, 18] was 3.19. The “Muconic acid in aqueous phase” value [2, 19] was 0.72 g/L, the “Muconic acid in organic phase” value [2, 19] was 1.23 g/L and the Partition coefficient [2, 19] was 1.71. The “Muconic acid in aqueous phase” value [2, 20] was 1.29 g/L, the “Muconic acid in organic phase” value [2, 20] was 8.29 g/L and the Partition coefficient [2, 20] was 6.43. For the same molecule, the “Muconic acid in aqueous phase” value [2, 21] was 0.30 g/L, the “Muconic acid in organic phase” value [2, 21] was 1.06 g/L and the Partition coefficient [2, 21] was 3.53. For the same molecule, the “Muconic acid in aqueous phase” value [2, 22] was 2.63 g/L, the “Muconic acid in organic phase” value [2, 22] was 9.65 g/L and the Partition coefficient [2, 22] was 3.67. For the same molecule, the “Muconic acid in aqueous phase” value [2, 23] was 0.84 g/L, the “Muconic acid in organic phase” value [2, 23] was 1.99 g/L and the Partition coefficient [2, 23] was 2.37. For the same molecule, the “Muconic acid in aqueous phase” value [2, 24] was 0.65 g/L, the “Muconic acid in organic phase” value [2, 24] was 7.40 g/L and the Partition coefficient [2, 24] was 11.38. The “Muconic acid in aqueous phase” value [2, 25] was 0.00 g/L, the “Muconic acid in organic phase” value [2, 25] was 0.51 g/L and the Partition coefficient [2, 25] was “large”. The “Muconic acid in aqueous phase” value [2, 26] was 10.47 g/L, the “Muconic acid in organic phase” value [2, 26] was 0.00 g/L and the Partition coefficient [2, 26] was 0.00. The “Muconic acid in aqueous phase” value [2, 27] was 10.20 g/L, the “Muconic acid in organic phase” value [2, 27] was 0.00 g/L and the Partition coefficient [2, 27] was 0.00. For the same molecule, the “Muconic acid in aqueous phase” value [2, 28] was 0.98 g/L, the “Muconic acid in organic phase” value [2, 28] was 8.62 g/L and the Partition coefficient [2, 28] was 8.80. The “Muconic acid in aqueous phase” value [2, 29] was 0.28 g/L, the “Muconic acid in organic phase” value [2, 29] was 1.05 g/L and the Partition coefficient [2, 29] was 3.75. The “Muconic acid in aqueous phase” value [2, 30] was 10.25 g/L, the “Muconic acid in organic phase” value [2, 30] was 0.00 g/L and the Partition coefficient [2, 30] was 0.00. The “Muconic acid in aqueous phase” value [2, 31] was 12.99 g/L, the “Muconic acid in organic phase” value [2, 31] was 0.00 g/L and the Partition coefficient [2, 31] was 0.00. The “Muconic acid in aqueous phase” value [2, 32] was 3.96 g/L, the “Muconic acid in organic phase” value [2, 32] was 6.78 g/L and the Partition coefficient [2, 32] was 1.71. For the same molecule, the “Muconic acid in aqueous phase” value [2, 33] was 2.02 g/L, the “Muconic acid in organic phase” value [2, 33] was 3.55 g/L and the Partition coefficient [2, 33] was 1.76. The “Muconic acid in aqueous phase” value ([3]; MeTHF, extraction 1) was 2.03 g/L, the “Muconic acid in organic phase” value ([3]; MeTHF, extraction 1) was 47.10 g/L and the Partition coefficient ([3]; MeTHF, extraction 1) was 23.20. For the same molecule, the “Muconic acid in aqueous phase” value ([3]; MeTHF, extraction 2) was 0.11 g/L, the “Muconic acid in organic phase” value ([3]; MeTHF, extraction 2) was 1.64 g/L and the Partition coefficient ([3]; MeTHF, extraction 2) was 14.91. For the same molecule, the “Muconic acid in aqueous phase” value ([3]; cyclohexanol, extraction 1) was 10.53 g/L, the “Muconic acid in organic phase” value ([3]; cyclohexanol, extraction 1) was 51.37 g/L and the Partition coefficient ([3]; cyclohexanol, extraction 1) was 4.88. The “Muconic acid in aqueous phase” value ([3]; cyclohexanol, extraction 2) was 2.71 g/L, the “Muconic acid in organic phase” value ([3]; cyclohexanol, extraction 2) was 3.75 g/L and the Partition coefficient ([3]; cyclohexanol, extraction 2) was 1.38. The “Muconic acid in aqueous phase” value ([3]; cyclohexanone, extraction 1) was 2.92 g/L, the “Muconic acid in organic phase” value ([3]; cyclohexanone, extraction 1) was 51.05 g/L and the Partition coefficient ([3]; cyclohexanone, extraction 1) was 17.48. For the same molecule, the “Muconic acid in aqueous phase” value ([3]; cylcohexanone, extraction 2) was 0.20 g/L, the “Muconic acid in organic phase” value ([3]; cylcohexanone, extraction 2) was 2.10 g/L and the Partition coefficient ([3]; cylcohexanone, extraction 2) was 10.50. For the same molecule, the “Muconic acid in aqueous phase” value ([3]; tBME, extraction 1) was 54.00 g/L, the “Muconic acid in organic phase” value ([3]; tBME, extraction 1) was 0.00 g/L and the Partition coefficient ([3]; tBME, extraction 1) was 0.00. The “Muconic acid in aqueous phase” value ([3]; tBME, extraction 2) was 59.88 g/L, the “Muconic acid in organic phase” value ([3]; tBME, extraction 2) was 0.00 g/L and the Partition coefficient ([3]; tBME, extraction 2) was 0.00. The “solubility in organic solvents compared with the other isomers” value [4] was “more soluble in organic solvents than either of the cis,cis or trans,trans isomers”, the “% ctMA in filtrate” value ([5]; pH 2.0) was 18 weight % and the “% ctMA in filtrate” value ([5]; pH 2.5) was 18 weight %. The ctMA in precipitate ([5]; pH 2.5) was 64 weight %, the “% ctMA in filtrate” value ([5]; pH 3.0) was 22 weight % and the ctMA in precipitate ([5]; pH 3.0) was 61 weight %. For the same molecule, the “cis,trans-muconic acid originally in the solution that precipitates” value ([5]; pH 3, Table 2) was “about 60%”, the “cis,trans-muconic acid remaining in solution” value ([5]; pH 3, Table 2) was “approximately 40%” and the “% ctMA in filtrate” value ([5]; pH 3.5) was 26 weight %. The ctMA in precipitate ([5]; pH 3.5) was 58 weight %, the “% ctMA in filtrate” value ([5]; pH 4.0) was 75 weight % and the ctMA in precipitate ([5]; pH 4.0) was 22 weight %. The “% ctMA in filtrate” value ([5]; pH 4.7) was 100 weight % and the ctMA in precipitate ([5]; pH 4.7) was 0 weight %.
